Columns and labels:
[1] = tested on: T24 (bladder) human-derived tumor cell line; experiment: MTT reduction antiproliferative assay, T24 bladder cells; type: cell-based; details: 48 h incubation, mean of at least three experiments, read-out: EC50 ± SEM T24
Protocol: (§1) The oxygen-substituted diaryl ketones 3–23 were evaluated for their in vitro antiproliferative activity on a panel of four cell lines, including non-tumor fibroblasts (Balb/3T3) and three human-derived tumor cell lines, namely DU-145 (prostate), T24 (bladder) and MCF7 (breast), using the conventional microculture tetrazolium reduction assay.
(§2) These values were calculated from their effects on MTT reduction in three cancer cell lines and Balb/3T3 non transformed mouse fibroblasts as a function of their concentration during 48 h of incubation. All three cancer cell lines were similarly sensitive to these compounds. […] The biological activity differences of compounds 12 and 22 with respect to their analogues could be attributed to the 3,4,5-trimethoxy substitution on the A-phenyl ring. According to literature precedents, the 3,4,5-trimethoxyphenyl ring is considered essential for the antitubulin activity of a broad variety of antimitotic compounds [36, 38, 39, 40, 41, 42, 43, 44, 45]. […] In this context, only compound 22 have a good mean selectivity index (2.45).
(§3) Human cancer cell lines (T24, DU-145, MCF7) were cultured in high-glucose Dulbecco's modified Eagle medium (Gibco, Grand Island, NY, USA) supplemented with 10% foetal calf serum, penicillin (100 U/mL), and streptomycin (100 μg/mL). Balb/3T3 cells (normal mouse fibroblasts) were cultured in the same medium, except that the foetal calf serum was replaced by 10% newborn calf serum. All cultures were kept at 37 °C in 95% air/5% CO2 at 100% humidity. Phosphate-buffered saline (PBS) was purchased from Gibco. Cells were incubated at the indicated times at 37 °C with or without hydroquinones at various concentrations.
(§4) The cytotoxicity of the bis aryl ketones was assessed by following the reduction of MTT (3-(4,5-dimethylthiazolyl-2)-2,5-diphenyltetrazolium bromide) to formazan blue. Briefly, cells were seeded into 96-well plates at a density of 10,000 cells/well for 24 h and then incubated for 48 h with or without the compounds. Cells were then washed twice with warm PBS and incubated with MTT (0.5 mg/mL) for 2 h at 37 °C. Incubation medium was thereafter discarded and the blue formazan crystals were solubilized by adding 100 μL DMSO/well. The colour solution was subsequently read at 550 nm. Results are expressed as % of MTT reduction compared to untreated control conditions. The calculation of EC50 values was performed by using GraphPad Prism software (San Diego, CA, USA).

[2] = tested on: Balb/3T3 non-tumor fibroblasts; experiment: MTT reduction assay, non-tumor fibroblasts; type: cell-based; details: Mus musculus, 48 h incubation, mean of at least three experiments, read-out: EC50 ± SEM BALB/3T3
Protocol: as §1, §2, §3, §4

[3] = tested on: MCF7 (breast) human-derived tumor cell line; experiment: MTT reduction antiproliferative assay, MCF7 breast cells; type: cell-based; details: 48 h incubation, mean of at least three experiments, read-out: EC50 ± SEM MCF-7
Protocol: as §1, §2, §3, §4

[4] = tested on: Balb/3T3 fibroblasts vs T24, DU-145 and MCF7 tumor cells; experiment: Mean selective index, fibroblasts versus tumor cells; type: cell-based; details: EC50 values fibroblasts/EC50 values tumor cells
Protocol: These values were calculated from their effects on MTT reduction in three cancer cell lines and Balb/3T3 non transformed mouse fibroblasts as a function of their concentration during 48 h of incubation.

[5] = tested on: DU-145 (prostate) human-derived tumor cell line; experiment: MTT reduction antiproliferative assay, DU-145 prostate cells; type: cell-based; details: 48 h incubation, mean of at least three experiments, read-out: EC50 ± SEM DU-145
Protocol: as §1, §2, §3, §4

NCI screen panel = tested on: NCI screen panel; parameters: method as in PMID 9572894; details: read-out: mean panel GI50 (growth inhibitory) value; cited from earlier work

Row | Compound | EC50 [1] [µM] | EC50 [2] [µM] | melting point [°C] | EC50 [3] [µM] | MSI: Mean Selective Index [4] | EC50 [5] [µM] | GI50 (NCI screen panel) [µM]
1 | COc1ccc(C(=O)c2cc(O)ccc2O)cc1OC [compound 10, (2,5-Dihydroxyphenyl)(3,4-dimethoxyphenyl)methanone] | 147 ± 19.2 | 35.4 ± 4.7 | 79 to 81 | 183 ± 17.7 | 0.23 | 140 ± 13.6 | 
2 | COc1ccc(C(=O)c2cc(O)ccc2O)cc1 [compound 8, (2,5-Dihydroxyphenyl)(4'-methoxyphenyl)methanone] | 168 ± 12.2 | 85.2 ± 9.7 | 144 to 145 | 191 ± 17.5 | 0.49 | 170 ± 15.5 | 
3 | COc1cc(C(=O)c2cc(O)c3ccccc3c2O)cc(OC)c1O [compound 23, (1,4-Dihydroxynaphthalen-2-yl)(4'-hydroxy-3',5'-dimethoxyphenyl)methanone] | 112 ± 9.3 | 99.6 ± 7.5 | 173 to 174 | 130 ± 14.8 | 0.84 | 114 ± 9.5 | 
4 | COc1cccc2c1C(=O)c1c(O)c3c(c(O)c1C2=O)C[C@@](O)(C(=O)CO)C[C@@H]3O[C@H]1C[C@H](N)[C@H](O)[C@H](C)O1 [DOX, doxorubicin, reference compound] | 0.65 ± 0.07 | 0.19 ± 0.01 |  | 0.33 ± 0.05 | 0.44 | 0.42 ± 0.03 | 
5 | Cc1ccccc1C(=O)c1cc(O)c2ccccc2c1O [compound 14, (1,4-Dihydroxynaphthalen-2-yl)(2'-methylphenyl)methanone] | 143 ± 9.5 | 226 ± 25.4 | 132 to 133 | 152 ± 14.5 | 1.54 | 144 ± 17.7 | 
6 | Cc1ccc(C(=O)c2cc(O)c3ccccc3c2O)cc1 [compound 16, (1,4-Dihydroxynaphthalen-2-yl)(4'-methylphenyl)methanone] | 135 ± 12.8 | 139 ± 15.2 | 150 to 151 | 134 ± 14.9 | 0.98 | 158 ± 13.7 | 
7 | CO[C@@]12[C@H](COC(N)=O)C3=C(C(=O)C(C)=C(N)C3=O)N1C[C@@H]1N[C@@H]12 [MIT, mitomycin C, reference compound] | 42.2 ± 5.8 | 27.3 ± 3.3 |  | 16.8 ± 2.9 |  | 14.3 ± 2.6 | 
8 | COc1ccc(OC)c(C(=O)c2cc(O)ccc2O)c1 [compound 9, (2,5-Dihydroxyphenyl)(2',5'-dimethoxyphenyl)methanone] | 150 ± 18.4 | 43.7 ± 7.6 | 135 to 136 | 164 ± 13.8 | 0.29 | 130 ± 12.5 | 
9 | COc1cc(C(=O)c2cc(O)ccc2O)ccc1O [compound 11, (2,5-Dihydroxyphenyl)(4'-hydroxy-3'-methoxyphenyl)methanone] | 154 ± 14.5 | 78 ± 9.3 | 221 to 222 | 177 ± 19.4 | 0.47 | 168 ± 15.9 | 
10 | O=C(c1ccccc1)c1cc(O)ccc1O [compound 3, (2,5-Dihydroxyphenyl)(phenyl)methanone] | 186 ± 20.4 | 38.5 ± 5.5 | 121 to 122 | 190 ± 19.2 | 0.20 | 205 ± 21.5 | 
11 | Cc1ccccc1C(=O)c1cc(O)ccc1O [compound 4, (2,5-Dihydroxyphenyl)(2'-methylphenyl)methanone] | 172 ± 13.2 | 184 ± 17.6 | 104 to 105 | 181 ± 15.8 | 1.06 | 172 ± 19.7 | 
12 | COc1cc(C(=O)c2cc(O)c3ccccc3c2O)cc(OC)c1OC [compound 22, (1,4-Dihydroxynaphthalen-2-yl)(3',4',5'-trimethoxyphenyl)methanone] | 13.5 ± 1.9 | 25.1 ± 3.9 | 189 to 191 | 20.2 ± 4.5 | 2.45 | 5.9 ± 0.8 | 
13 | COc1cc(C(=O)c2cc(O)c3ccccc3c2O)ccc1O [compound 21, (1,4-Dihydroxynaphthalen-2-yl)(4'-hydroxy-3'-methoxyphenyl)methanone] | 86.6 ± 9.6 | 15.7 ± 3.9 | 221 to 222 | 15.7 ± 4.6 | 0.45 | 89 ± 7.3 | 
14 | COc1cccc(C(=O)c2cc(O)ccc2O)c1 [compound 7, (2,5-Dihydroxyphenyl)(3'-methoxyphenyl)methanone] | 210 ± 20.5 | 118 ± 19.5 | 97 to 98 | 154 ± 12.3 | 0.68 | 166 ± 15.8 | 
15 | Cc1ccc(C(=O)c2cc(O)ccc2O)cc1 [compound 6, (2,5-Dihydroxyphenyl)(4'-methylphenyl)methanone] | 209 ± 19.5 | 78.3 ± 6.4 | 135 to 136 | 142 ± 15.3 | 0.57 | 101 ± 9.5 | 
16 | COc1ccc(OC)c(C(=O)c2cc(O)c3ccccc3c2O)c1 [compound 19, (1,4-Dihydroxynaphthalen-2-yl)(2',5'-dimethoxyphenyl)methanone] | 130 ± 10.1 | 100 ± 8.9 | 160 to 161 | > 310 | 0.77 | 129 ± 17.2 | 
17 | COc1cc(C(=O)c2cc(O)ccc2O)cc(OC)c1O [compound 13, (2,5-Dihydroxyphenyl)(4'-hydroxy-3',5'-dimethoxyphenyl)methanone] | > 350 | 19.1 ± 3.1 | 200 to 201 | > 350 |  | 113 ± 10.7 | 
18 | Cc1cccc(C(=O)c2cc(O)ccc2O)c1 [compound 5, (2,5-Dihydroxyphenyl)(3'-methylphenyl)methanone] | 202 ± 15.9 | 100 ± 9.5 | 119 to 120 | 226 ± 24.2 | 0.49 | 186 ± 17.8 | 
19 | Cc1cccc(C(=O)c2cc(O)c3ccccc3c2O)c1 [compound 15, (1,4-Dihydroxynaphthalen-2-yl)(3'-methylphenyl)methanone] | 137 ± 11.7 | 142 ± 13.9 | 154 to 155 | 145 ± 12.7 | 0.99 | 147 ± 15.9 | 
20 | COc1ccc(C(=O)c2cc(OC)c(OC)c(OC)c2)cc1O [phenstatin] |  |  |  |  |  |  | 0.0601
21 | COc1ccc(C(=O)c2cc(O)c3ccccc3c2O)cc1OC [compound 20, (1,4-Dihydroxynaphthalen-2-yl)(3',4'-dimethoxyphenyl)methanone] | 46.8 ± 5.1 | 2.8 ± 0.6 | 212 to 213 | 12.2 ± 3.8 | 0.11 | 61.8 ± 5.6 | 
22 | COc1cccc(C(=O)c2cc(O)c3ccccc3c2O)c1 [compound 17, (1,4-Dihydroxynaphthalen-2-yl)(3'-methoxyphenyl)methanone] | 133 ± 12.4 | 109 ± 11.1 | 149 to 150 | 128 ± 13.6 | 0.82 | 139 ± 11.3 | 
23 | COc1ccc(C(=O)c2cc(O)c3ccccc3c2O)cc1 [compound 18, (1,4-Dihydroxynaphthalen-2-yl)(4'-methoxyphenyl)methanone] | 127 ± 10.6 | 107 ± 12.3 | 150 to 151 | 125 ± 10.2 | 1.03 | 77.5 ± 6.5 | 
24 | COc1cc(C(=O)c2cc(O)ccc2O)cc(OC)c1OC [compound 12, (2,5-Dihydroxyphenyl)(3',4',5'-trimethoxyphenyl)methanone] | 3.6 ± 1.4 | 1.5 ± 0.4 | 68 to 70 | 53.6 ± 6.7 | 0.57 | 1.2 ± 0.6 | 

From PMC6270201, “Eco-Friendly Synthesis and Antiproliferative Evaluation of Some Oxygen Substituted Diaryl Ketones” (Molecules, 2013)
